# Data: PubChem BioAssay AID1963436 (Molecular Pharmacology Branch, DTP, NCI, 2024)
# “And” between values parts separate entries of the source, which are not always exact repeats. Equal entries are not always repeated.
# Tested on: OVCAR-5 complex spheroid (HUVEC/MSC), viability % T/C
# Experiment: Anticancer human tumor OVCAR-5 cell line growth inhibition [Asc];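 note: spheroids exposed to agents for 7 days before readout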;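 for viability, T/C: 100% = DMSO vehicle-treated wells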
# Conditions: for viability, T/C: stronger effect = lower value
# Method in brief: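 Spheroid model: tumor line + HUVEC + hMSC. Single agents and combinations; top conc. at/near clinical Cmax (10 microM if undetermined), half-log dilutions. DMSO stocks at 800-fold test concentration.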
# [1] = curve of first compound, second compound 0.03 µM
# [2] = curve of first compound, second compound 0.0949 µM
# [3] = curve of first compound, second compound 0.3 µM
# [4] = curve of first compound, second compound 0.949 µM
# [5] = curve of first compound, second compound 3 µM
# [6] = second compound 0.03 µM, first compound 0.0316 µM
# [7] = second compound 0.03 µM, first compound 0.1 µM
# [8] = second compound 0.0949 µM, first compound 0.0316 µM
# [9] = second compound 0.0949 µM, first compound 0.1 µM
# [10] = second compound 0.3 µM, first compound 0.0316 µM
# [11] = second compound 0.3 µM, first compound 0.1 µM
# [12] = second compound 0.949 µM, first compound 0.0316 µM
# [13] = second compound 0.949 µM, first compound 0.1 µM
# [14] = second compound 3 µM, first compound 0.0316 µM
# [15] = second compound 3 µM, first compound 0.1 µM
smiles,measurement,setting,value
O=C(c1ccc(F)c(F)c1Nc1ccc(I)cc1F)N1CC(O)([C@@H]2CCCCN2)C1 + CNC(C)C(=O)NC1CN(S(=O)(=O)c2cccc(S(=O)(=O)N3CCC4CCC(C(=O)NC(c5ccccc5)c5ccccc5)N4C(=O)C(NC(=O)C(C)NC)C3)c2)CCC2CCC(C(=O)NC(c3ccccc3)c3ccccc3)N2C1=O,IC50,"curve of first compound, second compound 0.01 µM",110 nM
same,IC50,"curve of first compound, second compound 0.0316 µM",108 nM
same,IC50,"curve of first compound, second compound 0.1 µM",76.2 nM
same,IC50,"curve of first compound, second compound 0.316 µM",49.2 nM
same,IC50,"curve of first compound, second compound 1 µM",72.6 nM
same,"viability, T/C","second compound 0.01 µM, first compound 0.00316 µM",92.2%
same,"viability, T/C","second compound 0.01 µM, first compound 0.01 µM",80.4%
same,"viability, T/C","second compound 0.01 µM, first compound 0.0316 µM",62.6%
same,"viability, T/C","second compound 0.01 µM, first compound 0.1 µM",51.2%
same,"viability, T/C","second compound 0.01 µM, first compound 0.316 µM",40.9%
same,"viability, T/C","second compound 0.01 µM, first compound 1 µM",31.8%
same,"viability, T/C","second compound 0.0316 µM, first compound 0.00316 µM",83.6%
same,"viability, T/C","second compound 0.0316 µM, first compound 0.01 µM",78.1%
same,"viability, T/C","second compound 0.0316 µM, first compound 0.0316 µM",64.5%
same,"viability, T/C","second compound 0.0316 µM, first compound 0.1 µM",51.4%
same,"viability, T/C","second compound 0.0316 µM, first compound 0.316 µM",36.7%
same,"viability, T/C","second compound 0.0316 µM, first compound 1 µM",25.5%
same,"viability, T/C","second compound 0.1 µM, first compound 0.00316 µM",80%
same,"viability, T/C","second compound 0.1 µM, first compound 0.01 µM",79.1%
same,"viability, T/C","second compound 0.1 µM, first compound 0.0316 µM",62.5%
same,"viability, T/C","second compound 0.1 µM, first compound 0.1 µM",46.5%
same,"viability, T/C","second compound 0.1 µM, first compound 0.316 µM",34.2%
same,"viability, T/C","second compound 0.1 µM, first compound 1 µM",30.3%
same,"viability, T/C","second compound 0.316 µM, first compound 0.00316 µM",77.7%
same,"viability, T/C","second compound 0.316 µM, first compound 0.01 µM",67.3%
same,"viability, T/C","second compound 0.316 µM, first compound 0.0316 µM",54.5%
same,"viability, T/C","second compound 0.316 µM, first compound 0.1 µM",42.8%
same,"viability, T/C","second compound 0.316 µM, first compound 0.316 µM",32.8%
same,"viability, T/C","second compound 0.316 µM, first compound 1 µM",26.8%
same,"viability, T/C","second compound 1 µM, first compound 0.00316 µM",79.8%
same,"viability, T/C","second compound 1 µM, first compound 0.01 µM",76.9%
same,"viability, T/C","second compound 1 µM, first compound 0.0316 µM",59.4%
same,"viability, T/C","second compound 1 µM, first compound 0.1 µM",47.7%
same,"viability, T/C","second compound 1 µM, first compound 0.316 µM",29.7%
same,"viability, T/C","second compound 1 µM, first compound 1 µM",24.1%
CNC(C)C(=O)NC1CN(S(=O)(=O)c2cccc(S(=O)(=O)N3CCC4CCC(C(=O)NC(c5ccccc5)c5ccccc5)N4C(=O)C(NC(=O)C(C)NC)C3)c2)CCC2CCC(C(=O)NC(c3ccccc3)c3ccccc3)N2C1=O (stereo not drawn),"viability, T/C",compound 0.00316 µM,97.5% and 104%
same,"viability, T/C",compound 0.01 µM,95.1% [middle of 15 runs]
same,"viability, T/C",compound 0.0316 µM,83.1% [middle of 15 runs]
same,"viability, T/C",compound 0.1 µM,80.8% [middle of 15 runs]
same,"viability, T/C",compound 0.316 µM,81.5% [middle of 15 runs]
same,"viability, T/C",compound 1 µM,80.3% [middle of 15 runs]
same,IC50,"compound alone, run of 10/03/2022",> 1000 nM
same,IC50,curve of compound,> 1000 nM
Cn1ncnc1[C@H]1c2n[nH]c(=O)c3cc(F)cc(c23)N[C@@H]1c1ccc(F)cc1 + CCN1C(C(=O)NC23CCC(C(=O)O)(CC2)CC3)C(c2cccc(Cl)c2F)C2(C(=O)Nc3cc(Cl)ccc32)C12CCCCC2,IC50,[1],> 100 nM
same,IC50,[2],> 100 nM
same,IC50,[3],> 100 nM
same,IC50,[4],> 100 nM
same,IC50,[5],> 100 nM
same,"viability, T/C","second compound 0.03 µM, first compound 0.000316 µM",108%
same,"viability, T/C","second compound 0.03 µM, first compound 0.001 µM",108%
same,"viability, T/C","second compound 0.03 µM, first compound 0.00316 µM",88.9%
same,"viability, T/C","second compound 0.03 µM, first compound 0.01 µM",94%
same,"viability, T/C",[6],96%
same,"viability, T/C",[7],91.1%
same,"viability, T/C","second compound 0.0949 µM, first compound 0.000316 µM",103%
same,"viability, T/C","second compound 0.0949 µM, first compound 0.001 µM",109%
same,"viability, T/C","second compound 0.0949 µM, first compound 0.00316 µM",89.7%
same,"viability, T/C","second compound 0.0949 µM, first compound 0.01 µM",91%
same,"viability, T/C",[8],101%
same,"viability, T/C",[9],82.8%
same,"viability, T/C","second compound 0.3 µM, first compound 0.000316 µM",112%
same,"viability, T/C","second compound 0.3 µM, first compound 0.001 µM",114%
same,"viability, T/C","second compound 0.3 µM, first compound 0.00316 µM",102%
same,"viability, T/C","second compound 0.3 µM, first compound 0.01 µM",80.7%
same,"viability, T/C",[10],98.3%
same,"viability, T/C",[11],98.8%
same,"viability, T/C","second compound 0.949 µM, first compound 0.000316 µM",112%
same,"viability, T/C","second compound 0.949 µM, first compound 0.001 µM",121%
same,"viability, T/C","second compound 0.949 µM, first compound 0.00316 µM",106%
same,"viability, T/C","second compound 0.949 µM, first compound 0.01 µM",97.4%
same,"viability, T/C",[12],106%
same,"viability, T/C",[13],88.7%
same,"viability, T/C","second compound 3 µM, first compound 0.000316 µM",109%
same,"viability, T/C","second compound 3 µM, first compound 0.001 µM",105%
same,"viability, T/C","second compound 3 µM, first compound 0.00316 µM",109%
same,"viability, T/C","second compound 3 µM, first compound 0.01 µM",91.4%
same,"viability, T/C",[14],106%
same,"viability, T/C",[15],89%
C#Cc1c(F)ccc2cc(O)cc(-c3ncc4c(N5CC6CCC(C5)N6)nc(OCC56CCCN5CC(F)C6)nc4c3F)c12 (stereo not drawn) + CCN1C(C(=O)NC23CCC(C(=O)O)(CC2)CC3)C(c2cccc(Cl)c2F)C2(C(=O)Nc3cc(Cl)ccc32)C12CCCCC2,IC50,[1],6750 nM
same,IC50,[2],6760 nM
same,IC50,[3],6720 nM
same,IC50,[4],6510 nM
same,IC50,[5],5410 nM
same,"viability, T/C",[6],108%
same,"viability, T/C",[7],108%
same,"viability, T/C","second compound 0.03 µM, first compound 0.316 µM",83.3%
same,"viability, T/C","second compound 0.03 µM, first compound 1 µM",78%
same,"viability, T/C","second compound 0.03 µM, first compound 3.16 µM",73%
same,"viability, T/C","second compound 0.03 µM, first compound 10 µM",39.1%
same,"viability, T/C",[8],106%
same,"viability, T/C",[9],105%
same,"viability, T/C","second compound 0.0949 µM, first compound 0.316 µM",91.1%
same,"viability, T/C","second compound 0.0949 µM, first compound 1 µM",88.8%
same,"viability, T/C","second compound 0.0949 µM, first compound 3.16 µM",66.5%
same,"viability, T/C","second compound 0.0949 µM, first compound 10 µM",40.8%
same,"viability, T/C",[10],101%
same,"viability, T/C",[11],107%
same,"viability, T/C","second compound 0.3 µM, first compound 0.316 µM",106%
same,"viability, T/C","second compound 0.3 µM, first compound 1 µM",74.8%
same,"viability, T/C","second compound 0.3 µM, first compound 3.16 µM",66.2%
same,"viability, T/C","second compound 0.3 µM, first compound 10 µM",42.4%
same,"viability, T/C",[12],99%
same,"viability, T/C",[13],109%
same,"viability, T/C","second compound 0.949 µM, first compound 0.316 µM",102%
same,"viability, T/C","second compound 0.949 µM, first compound 1 µM",84.4%
same,"viability, T/C","second compound 0.949 µM, first compound 3.16 µM",65.5%
same,"viability, T/C","second compound 0.949 µM, first compound 10 µM",41.3%
same,"viability, T/C",[14],104%
same,"viability, T/C",[15],107%
same,"viability, T/C","second compound 3 µM, first compound 0.316 µM",107%
same,"viability, T/C","second compound 3 µM, first compound 1 µM",79.5%
same,"viability, T/C","second compound 3 µM, first compound 3.16 µM",61.2%
same,"viability, T/C","second compound 3 µM, first compound 10 µM",39.6%
